{"source": "paper PMC13252604", "about": "“First Generation Proteolysis Targeting Chimeras (PROTACs) for the Treatment of Progeria” (Advanced Science, 2026)", "key": {"[1]": {"tested_on": "Lmna^+/+ fibroblasts", "test": "Cell viability assay (MTT)", "assay_type": "cell-based, mouse", "details": "up to 50 µM, 24 h", "description": "(§1) Cpd!\" 2 Cpd#$ 9 Cpd!\" 2 Cpd#$ 9\n(§2) Supporting Figure S3. Cellular cytotoxicity of compounds 2 and 9. Viability of progeroid […]/G609G and wild type Lmna+/+ fibroblasts treated with compounds at 5-50 µM for 24 h. Viability is expressed as the percentage relative to cells treated with vehicle (0.1% DMSO) which are considered 100% viable. Error bars represent the average±SD from three independent experiments carried out in duplicate.\n(§3) (also on this page, place not known: !\" #$**+,-./-*-01+234 !\" #$**+,-./-*-01+234 Cpd2 Cpd2Cpd9 Cpd9) […]\n(§4) was saturated at 100 ppm. Relative STD effects were calculated by comparing the intensity of the signals in the STD-NMR spectrum with signal intensities of the reference spectrum (off-resonance). The STD signal with the highest intensity was set to 100%, a nd other STD signals were calculated accordingly. […]\n(§5) Cell viability was assessed as previously described.[64] […] Once supernatants were removed, formazan crystals previously formed by viable cells were dissolved in DMSO (100 μL/ well) and absorbance was measured at 570 nm (OD570-630) using an Asys UVM 340 (Biochrom Ltd., Cambridge, UK) microplate reader. Background absorbance from blank wells containing only media with compound or vehicle were subtracted from each test well. […]"}, "[2]": {"tested_on": "Lmna^G609G/G609G fibroblasts", "test": "Cell viability assay (MTT)", "assay_type": "cell-based, mouse", "details": "up to 50 µM, 24 h", "description": "as §1, §2, §3, §4, §5"}}}
{"compound": "CC1(C)Oc2cc3oc(=O)ccc3cc2C[C@@H]1OC(=O)CCCCCNc1cccc2c1C(=O)N(C1CCC(=O)NC1=O)C2=O", "note": "(some centres unmarked) [compound 2]", "values": [{"measurement": "cytotoxicity (cell viability)", "setting": "[1]", "result": "did not induce significant cytotoxicity"}, {"measurement": "cytotoxicity (cell viability)", "setting": "[2]", "result": "did not induce significant cytotoxicity"}]}
